From ChEMBL document CHEMBL3045062, “Potent in vitro and in vivo antitubercular activity of certain newly synthesized indophenazine 1,3,5-trisubstituted pyrazoline derivatives bearing benzofuran” (Med Chem Res, 2011)
Converted amounts (≈) assume the structure as drawn.

Key:
[1] = tested on: Mycobacterium tuberculosis; assay: Antitubercular activity against Mycobacterium tuberculosis H37Rv after 60 days; assay type: functional
Vero = assay: Cytotoxicity against Chlorocebus aethiops (African green monkey) Vero cells after 72 hr; assay type: cell-based; conditions: Chlorocebus sabaeus

Row | Compound | MIC50 [1] [µg/mL] | MIC90 [1] [µg/mL] | IC50 (Vero) [µM]
1 | O=C(Cn1c2ccccc2c2nc3ccccc3nc21)N1N=C(c2cc3cc(O)ccc3o2)CC1c1ccccc1O (configuration not stated) | 9.81 (≈ 17.7 µM) | 10.8 (≈ 19.6 µM) | > 227
2 | COc1ccccc1C1CC(c2cc3cc(O)ccc3o2)=NN1C(=O)Cn1c2ccccc2c2nc3ccccc3nc21 (configuration not stated) | 11.8 (≈ 20.8 µM) | 14.2 (≈ 25 µM) | > 226
3 | CN(C)c1ccc(C2CC(c3cc4cc(O)ccc4o3)=NN2C(=O)Cn2c3ccccc3c3nc4ccccc4nc32)cc1 (configuration not stated) | 5.56 (≈ 9.58 µM) | 9.21 (≈ 15.9 µM) | > 216
4 | CC(=O)c1ccccc1C1CC(c2cc3cc(O)ccc3o2)=NN1C(=O)Cn1c2ccccc2c2nc3ccccc3nc21 (configuration not stated) |  |  | > 220
5 | O=C(Cn1c2ccccc2c2nc3ccccc3nc21)N1N=C(c2cc3cc(O)ccc3o2)CC1c1cccc([N+](=O)[O-])c1 (configuration not stated) | 0.62 (≈ 1.06 µM) | 1.24 (≈ 2.13 µM) | > 180
6 | COc1ccc(C2CC(c3cc4cc(O)ccc4o3)=NN2C(=O)Cn2c3ccccc3c3nc4ccccc4nc32)c(O)c1 (configuration not stated) | 4.56 (≈ 7.81 µM) | 8.32 (≈ 14.3 µM) | > 206
7 | O=C(Cn1c2ccccc2c2nc3ccccc3nc21)N1N=C(c2cc3cc(O)ccc3o2)CC1c1ccc(O)cc1 (configuration not stated) |  |  | > 245
8 | O=C(Cn1c2ccccc2c2nc3ccccc3nc21)N1N=C(c2cc3cc(O)ccc3o2)CC1c1ccc(Cl)cc1 (configuration not stated) | 2.45 (≈ 4.28 µM) | 4.2 (≈ 7.34 µM) | > 205
9 | O=C(Cn1c2ccccc2c2nc3ccccc3nc21)N1N=C(c2cc3cc(O)ccc3o2)CC1c1ccccc1Cl (configuration not stated) | 1.75 (≈ 3.06 µM) | 2.56 (≈ 4.48 µM) | > 196
10 | O=C(Cn1c2ccccc2c2nc3ccccc3nc21)N1N=C(c2cc3cc(O)ccc3o2)CC1c1ccccc1[N+](=O)[O-] (configuration not stated) | 0.16 (≈ 0.275 µM) | 0.42 (≈ 0.721 µM) | > 144
11 | COc1ccc(C2CC(c3cc4cc(O)ccc4o3)=NN2C(=O)Cn2c3ccccc3c3nc4ccccc4nc32)cc1 (configuration not stated) | 12.1 (≈ 21.3 µM) | 14.3 (≈ 25.2 µM) | > 226
12 | O=C(Cn1c2ccccc2c2nc3ccccc3nc21)N1N=C(c2cc3cc(O)ccc3o2)CC1c1ccccc1 (configuration not stated) |  |  | > 197
13 | O=C(Cn1c2ccccc2c2nc3ccccc3nc21)N1N=C(c2cc3cc(O)ccc3o2)CC1c1ccco1 (configuration not stated) | 1.1 (≈ 2.09 µM) | 3.12 (≈ 5.91 µM) | > 198
14 | O=C(Cn1c2ccccc2c2nc3ccccc3nc21)N1N=C(c2cc3cc(O)ccc3o2)CC1/C=C/c1ccccc1 (configuration not stated) | 0.98 (≈ 1.74 µM) | 3.67 (≈ 6.51 µM) | > 206
15 | COc1c(N2CCNC(C)C2)c(F)cc2c(=O)c(C(=O)O)cn(C3CC3)c12 (configuration not stated) [GATIFLOXACIN] | 0.12 (≈ 0.32 µM) | 0.5 (≈ 1.33 µM) | > 160
16 | CO[C@H]1/C=C/O[C@@]2(C)Oc3c(C)c(O)c4c(O)c(c(/C=N/N5CCN(C)CC5)c(O)c4c3C2=O)NC(=O)/C(C)=C\C=C\[C@H](C)[C@H](O)[C@@H](C)[C@@H](O)[C@@H](C)[C@H](OC(C)=O)[C@@H]1C [RIFAMPIN] | 0.5 (≈ 0.608 µM) | 2 (≈ 2.43 µM) | > 77.4
